Data taken from paper PMC8956739, “A synthetic lipopeptide targeting top-priority multidrug-resistant Gram-negative pathogens” (Nature Communications, 2022).
≈ marks a conversion by molar mass, not a printed value. Where “and” joins values, the source holds several entries; their conditions need not be identical. Identical values can stand only once. Residues, ends and D or L forms follow the SMILES beside them.

Legend:
P. aeruginosa ATCC 27853 [1] = assay: Neutropenic mouse bloodstream infection model; assay type: in vivo; conditions: single IV dose 4 mg/kg; for Log10 CFU/mL blood at 4 h, Mean / Δlog10 CFU/mL blood (mean) / Log10 CFU/mL blood at 4 h, single mouse: 4 h; for Δlog10 CFU/mL blood (mean): treated minus control, mean of replicates; for Δlog10 CFU/mL blood (mean) / Log10 CFU/mL blood at 4 h, single mouse / Delta Log10 CFU/mL blood at 4 h, single mouse: 4 mg/kg; for Delta Log10 CFU/mL blood at 4 h, single mouse: treated mouse minus mean of vehicle mice
Protocol: The experimental methodology for the neutropenic mouse bloodstream infection model was described previously. Briefly, 7-week-old female Swiss mice (22–28 g) were rendered neutropenic by intraperitoneal administration of cyclophosphamide, 4 days (150 mg/kg) and 1 day (100 mg/kg) prior to inoculation. Bloodstream infection was established by intravenous administration of a 50 µL bolus of early log-phase bacterial suspension (4 × 10^8 CFU/mL). Lipopeptide solutions were prepared at 1 mg/mL (free base) in sterile saline. At 2 h after inoculation, mice (n = 3) were injected intravenously with lipopeptide solution at 4 mg/kg (free base) or saline control. At 0 and 4 h after administration, blood was collected, diluted serially in sterile saline, and plated on nutrient agar plates. Agar plates were incubated at 37 °C overnight for bacterial colony counting and the bacterial load in the blood (log10 CFU/mL) in each mouse was calculated. In vivo efficacy was calculated as the difference of the log10 CFU/mL blood values between the treated mice and the saline-treated mice at 4 h post dosing (Δlog10 CFU/mL blood = log10 [treated] CFU/mL blood − log10[control] CFU/mL blood).

Swiss mice, kidney = assay: Nephrotoxicity in mice (kidney histopathology); assay type: in vivo, mouse; conditions: for Kidney histopathology (SQS Score): 72 mg/kg/d subcutaneously in six divided doses every 2 h, n = 3; for Kidney histopathology, mice with the SQS score: mouse, in vivo
Protocol: The experimental methodology has been previously reported by our group. Briefly, individual lipopeptide solutions were prepared in sterile saline (6 mg/mL). Swiss mice (female, 7-week-old, 22–28 g) were subcutaneously administered at 12 mg/kg in, 6 doses every 2 h to reach a total dose of 72 mg/kg (n = 3). For high-dose nephrotoxicity experiments, mice were intraperitoneally administered at 20 or 25 mg/kg, in 6 doses every 2 h to reach a total dose of 120 mg/kg (n = 6) or 150 mg/kg (n = 3). At 20 h after the last dose, the right kidney from each mouse was collected and placed in 10% buffered (pH 7.4) formalin (Sigma-Aldrich, Castle Hill, NSW, Australia). The kidneys were subjected to histological examination at the Australian Phenomics Network-Histopathology and Organ Pathology (University of Melbourne, Parkville, VIC, Australia), who was blind to the treatment groups.

A. baumannii ATCC 19606 = assay type: cell-based, Acinetobacter baumannii; conditions: ATCC 19606
Protocol: (§1) MICs were determined in cation-adjusted Mueller–Hinton broth (CaMHB) by the broth micro-dilution method against ATCC strains and clinical isolates. MICs in the presence of Survanta® were determined as described above against P. aeruginosa ATCC 27853. In the 100 μL of fresh CaMHB containing polymyxins, 10% Survanta® (v/v, 2.5 mg/mL phospholipids) was added. MICs in the presence and absence of Survanta® were compared to determine the effect of binding to lung surfactant on the antibacterial activity of polymyxins.

A. baumannii FADDI-AB030 = assay type: cell-based, Acinetobacter baumannii; conditions: FADDI-AB030
Protocol: as §1

A. baumannii FADDI-AB034 = assay type: cell-based, Acinetobacter baumannii; conditions: FADDI-AB034
Protocol: as §1

P. aeruginosa ATCC 27853 [2] = assay type: cell-based, Pseudomonas aeruginosa; conditions: ATCC 27853
Protocol: as §1

[3] = tested on: P. aeruginosa FADDI-PA025; assay type: cell-based, Pseudomonas aeruginosa; conditions: FADDI-PA025
Protocol: as §1

[4] = tested on: P. aeruginosa FADDI-PA038; assay type: cell-based, Pseudomonas aeruginosa; conditions: FADDI-PA038
Protocol: as §1

[5] = tested on: K. pneumoniae FADDI-KP032; assay type: cell-based, Klebsiella pneumoniae; conditions: FADDI-KP032
Protocol: as §1

[6] = tested on: K. pneumoniae FADDI-KP065; assay type: cell-based, Klebsiella pneumoniae; conditions: FADDI-KP065
Protocol: as §1

| Structure (SMILES) | Log10 CFU/mL blood at 4 h, Mean (P. aeruginosa ATCC 27853 [1]) [Log10 CFU/mL blood] | Δlog10 CFU/mL blood (mean) (P. aeruginosa ATCC 27853 [1]) [log10 CFU/mL blood] | Log10 CFU/mL blood at 4 h, single mouse (P. aeruginosa ATCC 27853 [1]) | Delta Log10 CFU/mL blood at 4 h, single mouse (P. aeruginosa ATCC 27853 [1]) | Kidney histopathology (SQS Score) (Swiss mice, kidney) | Kidney histopathology, mice with the SQS score (Swiss mice, kidney) | MIC A. baumannii ATCC 19606 (A. baumannii ATCC 19606) [µg/mL] | MIC A. baumannii FADDI-AB030 (A. baumannii FADDI-AB030) [µg/mL] | MIC A. baumannii FADDI-AB034 (A. baumannii FADDI-AB034) [µg/mL] | MIC P. aeruginosa ATCC 27853 (P. aeruginosa ATCC 27853 [2]) [µg/mL] | MIC P. aeruginosa FADDI-PA025 [3] [µg/mL] | MIC P. aeruginosa FADDI-PA038 [4] [µg/mL] | MIC K. pneumoniae FADDI-KP032 [5] [µg/mL] | MIC K. pneumoniae FADDI-KP065 [6] [µg/mL] |
| --- | --- | --- | --- | --- | --- | --- | --- | --- | --- | --- | --- | --- | --- | --- |
| CCCCCCCC(=O)N[C@@H](CCN)C(=O)N[C@H](C(=O)N[C@@H](CCN)C(=O)N[C@H]1CCNC(=O)[C@H]([C@@H](C)O)NC(=O)[C@H](CCN)NC(=O)[C@H](CCN)NC(=O)[C@H](C)NC(=O)[C@@H](CC(C)C)NC(=O)[C@H](CCN)NC1=O)[C@@H](C)O [Lipopeptide F124] (HELM PEPTIDE1{[CCCCCCCC(=O)[*:2]].[Dab].T.[Dab].[Dab].[Dab].[dL].A.[Dab].[Dab].T}$PEPTIDE1,PEPTIDE1,5:R3-11:R2$$$V2.0) | 4.53 | −2.92 | 4.71 Log10 CFU/mL blood and 4.61 Log10 CFU/mL blood and 4.26 Log10 CFU/mL blood | -2.74 Log10 CFU/mL blood and -2.83 Log10 CFU/mL blood and -3.19 Log10 CFU/mL blood | 0 (SQS 0 = no significant change (overall score, <1)) | 3/3 | 1 (≈ 0.898 µM) | 1 (≈ 0.898 µM) | 0.5 (≈ 0.449 µM) | 0.5 (≈ 0.449 µM) | >32 | 0.5 (≈ 0.449 µM) | 0.25 (≈ 0.225 µM) | <0.125 |
| CCCCCCCC(=O)N[C@@H](CCN)C(=O)N[C@H](C(=O)N[C@@H](CCN)C(=O)N[C@H]1CCNC(=O)[C@H]([C@@H](C)O)NC(=O)[C@H](CCN)NC(=O)[C@H](CCN)NC(=O)[C@H]([C@@H](C)O)NC(=O)[C@@H](Cc2ccccc2)NC(=O)[C@H](CCN)NC1=O)[C@@H](C)O [Lipopeptide F224] (HELM PEPTIDE1{[CCCCCCCC(=O)[*:2]].[Dab].T.[Dab].[Dab].[Dab].[dF].T.[Dab].[Dab].T}$PEPTIDE1,PEPTIDE1,5:R3-11:R2$$$V2.0) | 4.07 | −3.38 | 4.08 Log10 CFU/mL blood and 4.03 Log10 CFU/mL blood and 4.10 Log10 CFU/mL blood | -3.37 Log10 CFU/mL blood and -3.42 Log10 CFU/mL blood and -3.35 Log10 CFU/mL blood | 0 (SQS 0 = no significant change (overall score, <1)) | 3/3 | 1 (≈ 0.849 µM) | 0.25 (≈ 0.212 µM) | 0.5 (≈ 0.425 µM) | 1 (≈ 0.849 µM) | 16 (≈ 13.6 µM) | 0.5 (≈ 0.425 µM) | 0.5 (≈ 0.425 µM) | <0.125 |
